Like-named read-outs stand apart in the source and are kept apart here.
What was measured:
SK-BR-3 tumor cells = assay: Inhibition of in vitro proliferation of SK-BR-3 tumor cells (CTG); format: cell-based; settings: Homo sapiens, SK-BR-3, 144 h, read-out: IC50 (nM) SK-BR-3
Method: (§1) This experiment was intended to test the inhibitory activity of the pharmaceutical compounds of the present disclosure against the in vitro proliferation of U87MG cells (glioma cells, Cell Bank, Chinese Academy of Sciences, Catalog #TCHu138) and SK-BR-3 tumor cells (human breast cancer cells, ATCC, Catalog #HTB-30). The cells were treated in vitro with a compound at different concentrations. After 6 days of culture, the proliferation of cells was tested using CTG (CellTiter-Glo® Luminescent Cell Viability Assay, Promega, Catalog #G7573) reagents, and the in vitro activity of the compound was evaluated according to the IC50 value.
(§2) The method of testing the inhibition of the in vitro proliferation of U87MG cells was described below as an example for the method of assaying for the inhibitory activity of the compounds of the present disclosure against the in vitro proliferation of tumor cells. The method is also applicable to, but not limited to, tests for inhibitory activity against the in vitro proliferation of other tumor cells.
(§3) 1. Cell culture: U87MG and SK-BR-3 cells were cultured in EMEM medium (GE, Catalog #SH30024.01) containing 10% FBS and McCoy's 5A medium (Gibco, Catalog #16600-108) containing 10% FBS, respectively.
(§4) 2. Preparation of cells. U87MG and SK-BR-3 cells growing at log phase were washed once with PBS (phosphate buffer, Shanghai BasalMedia Technologies Co., Ltd.) and then digested with 2-3 mL of trypsin (0.25% Trypsin-EDTA (1×), Gibico, Life Technologies) for 2-3 min. After the cells were completely digested, 10-15 mL of cell culture media were added to elute the digested cells. The mixtures were centrifuged at 1000 rpm for 5 min, and the supernatants were discarded. Then the cells were resuspended in 10-20 mL of cell culture media to give single-cell suspensions.
3. Cell plating. […]
(§5) 7. Plate reading. The 96-well cell culture plate was taken out and tested in a microplate reader (BMG labtech, PHERAstar FS) for chemiluminescence.
(§6) Data were processed and analyzed using Microsoft Excel and Graphpad Prism 5.

U87MG cells = assay: Inhibition of in vitro proliferation of U87MG cells (CTG); format: cell-based; settings: Homo sapiens, U-87 MG, 144 h, read-out: IC50 (nM) U87
Method: as §1, §2, §3, §4
3. Cell plating. The U87MG and SK-BR-3 single-cell suspensions were each well mixed and adjusted with cell culture media to cell densities of 2.75×10^3 cells/mL and 8.25×10^3 cells/mL, respectively. The adjusted cell suspensions were each well mixed and added to 96-well cell culture plates at 180 μL/well. To each of the peripheral wells of the 96-well plates was added 200 μL of media only. The plate was incubated in an incubator for 24 h (37° C., 5% CO2).
4. Preparation of compounds. A compound was dissolved in DMSO (dimethyl sulfoxide, Shanghai Titan Scientific Co., Ltd.) to prepare a stock solution at an initial concentration of 10 mM.
Small molecule compounds were prepared at an initial concentration of 500 nM as follows.
Different test samples at concentration 100 μM (30 μL) were added to the first column of a 96-well U-bottom plate, and 20 μL of DMSO was added to each well of the second column through the eleventh column. The samples in the first column (10 μL) were added to the 20 μL of DMSO in the second column, and the mixtures were well mixed. The mixtures (10 μL) were added to the third column, and so on to the tenth column. The drugs in the plate (5 μL per well) were transferred to EMEM media (95 μL), and the mixtures were well mixed for later use.
5. Sample addition. The test samples prepared at different concentrations (20 μL) were added to a culture plate, with two duplicate wells set for each sample. […]
as §5, §6

[1] = in vitro proliferation, 6 days, CTG

SMILES	IC50 (U87MG cells; [1]) [nM]	IC50 (SK-BR-3 tumor cells) [nM]	IC50 (U87MG cells) [nM]	also measured
CC[C@@]1(O)C(=O)OCc2c1cc1n(c2=O)Cc2c-1nc1cc(F)c(C)c3c1c2[C@@H](NC(=O)[C@H](O)C1CC1)CC3 [(R)-2-cyclopropyl-N-((1S,9S)-9-ethyl-5-fluoro-9-hydroxy-4-methyl-10,13-dioxo-2,3,9,10,13,15-hexahydro-1H,12H-benzo[de]pyrano[3′,4′:6,7]indolizino[1,2-b]quinolin-1-yl)-2-hydroxyacetamide]	0.86			IC50 (SK-BR-3 tumor cells; [1]): 0.33 nM
CC[C@@]1(O)C(=O)OCc2c1cc1n(c2=O)Cc2c-1nc1cc(F)c(C)c3c1c2[C@@H](NC(=O)C1(O)CC1)CC3 [Example 1, N-((1S,9S)-9-ethyl-5-fluoro-9-hydroxy-4-methyl-10,13-dioxo-2,3,9,10,13,15-hexahydro-1H,12H-benzo[de]pyrano[3′,4′:6,7]indolizino[1,2-b]quinolin-1-yl)-1-hydroxycyclopropane-1-carboxamide]		0.12	0.23	
CC[C@@]1(O)C(=O)OCc2c1cc1n(c2=O)Cc2c-1nc1cc(F)c(C)c3c1c2[C@@H](NC(=O)C1(O)CCCC1)CC3 [Example 4, N-((1S,9S)-9-ethyl-5-fluoro-9-hydroxy-4-methyl-10,13-dioxo-2,3,9,10,13,15-hexahydro-1H,12H-benzo[de]pyrano[3′,4′:6,7]indolizino[1,2-b]quinolin-1-yl)-1-hydroxycyclopentane-1-carboxamide]		1.9		
CC[C@@]1(O)C(=O)OCc2c1cc1n(c2=O)Cc2c-1nc1cc(F)c(C)c3c1c2[C@@H](NC(=O)C1(CO)CC1)CC3 [Example 5, N-((1S,9S)-9-ethyl-5-fluoro-9-hydroxy-4-methyl-10,13-dioxo-2,3,9,10,13,15-hexahydro-1H,12H-benzo[de]pyrano[3′,4′:6,7]indolizino[1,2-b]quinolin-1-yl)-1-(hydroxymethyl)cyclopropane-1-carboxamide]			4.81	
CC[C@@]1(O)C(=O)OCc2c1cc1n(c2=O)Cc2c-1nc1cc(F)c(C)c3c1c2[C@@H](NC(=O)C1(CO)CCC1)CC3 [Example 6, N-((1S,9S)-9-ethyl-5-fluoro-9-hydroxy-4-methyl-10,13-dioxo-2,3,9,10,13,15-hexahydro-1H,12H-benzo[de]pyrano[3′,4′:6,7]indolizino[1,2-b]quinolin-1-yl)-1-(hydroxymethyl)cyclobutane-1-carboxamide]	1.83			
CC[C@@]1(O)C(=O)OCc2c1cc1n(c2=O)Cc2c-1nc1cc(F)c(C)c3c1c2[C@@H](NC(=O)C1(O)CCC1)CC3 [Example 7, N-((1S,9S)-9-ethyl-5-fluoro-9-hydroxy-4-methyl-10,13-dioxo-2,3,9,10,13,15-hexahydro-1H,12H-benzo[de]pyrano[3′,4′:6,7]indolizino[1,2-b]quinolin-1-yl)-1-hydroxycyclobutane-1-carboxamide]	1.95			
